Type in all cases: cell-based
Assay [1] has as its system primary human fibroblasts derived from IPF patients (LL29 cells). Briefly: Inhibition of fibrotic process: αSMA staining in TGF-β1-treated primary human fibroblasts from IPF patients (LL29 cells). To be noted: Fibroblast, 96 h, LL29 cells treated with TGF-β1 (20 ng/mL), 4 days, 11-point dose-response from 10 μM to 1.87 nM, read-out: Inhibition of fibrosis EC50. In short, it runs like this:
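LL29 IPF lung fibroblasts in F12 with 1% FBS, compound (11-point, 10 μM to 1.87 nM, 0.1% DMSO) plus TGF-β1 20 ng/mL for 4 days at 37° C. αSMA-positive % of SYTOX-negative cells by immunofluorescence imaging, normalized to TGF-β1 wells; EC50 from non-linear regression of triplicates.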

The test system of assay [2] is Wnt activity (Wnt-responsive Sp5 promoter-luciferase reporter in SW480 cells). As to the kind of experiment: Wnt activity screening assay: Sp5-Luc reporter gene in SW480 colon carcinoma cells. To be noted: Homo sapiens. Put shortly:
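IC50 values come from variable-slope four-parameter fits of luciferase signal normalized to DMSO wells. Stable Sp5-Luc reporter SW480 colon carcinoma cells were exposed to compounds in a 3-fold dilution series (source plates from 10 mM stock) for forty-two hours at 37 °C.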
For orientation: A reporter such as luciferase makes a cellular process visible.

Assay [3] relates to primary human mesenchymal stem cells (hMSCs). Briefly: Chondrogenesis induction in primary human mesenchymal stem cells (nodule imaging, Rhodamine B/Nile Red). The note with it: 144 h, 6 days; for EC (100% TGF-beta3 activity): concentration required to induce chondrogenesis equivalent to TGF-β3 positive control, read-out: Conc (nM) of 100% TGF-β3 activity; for Emax: relative to TGF-β3 (10 ng/mL) positive control, read-out: Max. Activity as % TGF-β3 activity. The method, then:
The above synthesized compounds were screened using primary human mesenchymal stem cells (hMSCs) to determine their ability to induce chondrogenesis (process by which cartilage is developed).
Primary human mesenchymal stem cells (hMSCs) were purchased from Lonza (Walkersville, Md.) and expanded in Mesenchymal Stem Cell Growth Media (Lonza). Cells between passage 3 and 6 were used for the experiments.
Each compound was dissolved in DMSO as a 10 mM stock and used to prepare compound source plates. Serial dilution (1:3, 6-point dose-response curves from 2700 nM to 10 nM) and compound transfer was performed using the ECHO 550 (Labcyte, Sunnyvale, Calif.) into 96-well clear bottom assay plates (Greiner Bio-One) with appropriate DMSO backfill for a final DMSO concentration of 0.03%. hMSCs were plated at 20,000 cells/well in 250 μL/well Incomplete Chondrogenic Induction Medium (Lonza; DMEM, dexamethasone, ascorbate, insulin-transferrin-selenium [ITS supplement], gentamycin-amphotericin [GA-1000], sodium pyruvate, proline and L-glutamine). TGF-β3 (10 ng/mL) was used as a positive control for differentiation while negative control wells were treated with 75 nL DMSO for normalization and calculating EC50 values. Cells were incubated at 37° C. and 5% CO2 for 6 days. To image chondrogenic nodules, the cells were fixed using 4% formaldehyde (Electron Microscopy Sciences), and stained with 2 μg/mL Rhodamine B (Sigma-Aldrich) and 20 μM Nile Red (Sigma-Aldrich) [Johnson K., et. al, A Stem Cell-Based Approach to Cartilage Repair, Science, (2012), 336(6082), 717-721]. The nodules imaged (4 images per well at 4× magnification) by excitation at 531 nm and emission at 625 nm and quantified using the CellInsight CX5 (Thermo Scientific). Number of nodules in each well was normalized to the average of 3 DMSO treated wells on the same plate using Excel (Microsoft Inc.). The normalized averages (fold change over DMSO) of 3 replicate wells for each compound concentration were calculated. Due to solubility limitations of some of the compounds, curve fitting was incomplete leading to inaccurate EC50 determinations.
Using TGF-03 as a positive control, the concentration of test compounds required to induce equivalent levels of chondrogenesis is reported. In addition, the maximum activity of each compound and the respective dose that each compound reached maximum chondrogenesis activity is reported.

For another assay, the system named is ARPE-19 cells. As to the kind of experiment: Transdifferentiation of ARPE-19 cells into eye neuronal cells [photoreceptors] (PAX6 staining). To be noted: Homo sapiens, 40 hours, normalized to DMSO. The method, then: The above synthesized compounds were screened using ARPE-19 cells [a spontaneously arising retinal pigment epithelia (RPE) cell line] to determine their ability to transdifferentiate ARPE-19 into eye neuronal cells [photoreceptors].
ARPE-19 cells are cultured in standard culture medium containing Dulbecco's Modified Eagle's Medium and Ham's F12 Nutrient Mixture (DMEM/F12) mix (1:1)+GlutaMax with 1% penicillin-Streptomycin and 10% FBS (Fetal Bovine Serum). Cells are incubated at 37° C. with 5% CO2. Cells are trypsinized and plated onto 384-well pre-spotted plate at a density of 3000 cells/well in 50 uL of media. Plating media: DMEM/F12 (1:1)+3% charcoal filtered-FBS+GlutaMax+1% pen/Strep. Cells are incubated at 37° C. with 5% CO2. At 40 hours, cells were fixed for 15 min with 10% Buffered Formalin. Cells were then washed 3 times with PBS for 5 min each, permeablize using 0.3% Triton X-100 in 1×PBS for 30 min, block for 1 hr with 2% BSA in 1×PBS with 0.1% Triton X-100. The primary antibody (1:100 PAX6 Santa Cruz Biotech; sc-81649) was diluted and 10 μL/well was added to the cells. The cells were incubated overnight at 4° C. […] Readings were normalized to DMSO only treated cells, and normalized activities were utilized for EC50 calculations using the dose-response log (activator) vs. response-variable slope (four parameters) nonlinear regression feature available in GraphPad Prism 5.0 or 6.0.

For `Cc1ccc(-c2cncc3[nH]c(-c4n[nH]c5cnc(-c6cncc(NC(=O)C7CCC7)c6)cc45)nc23)s1` [Compound 358, N-(5-(3-(7-(5-Methylthiophen-2-yl)-3H-imidazo[4,5-c]pyridin-2-yl)-1H-pyrazolo[3,4-c]pyridin-5-yl)pyridin-3-yl)cyclobutanecarboxamide], in assay [1], the EC50 (in general, the concentration needed to bring the measured effect to its halfway point) worked out at 0.019 µM. Besides, it took 0.0067 µM to reach half-maximal inhibition in assay [2] (IC50). Besides, in assay [3], the EC (100% TGF-beta3 activity) was found to be 231 nM and the Emax is 100%.
For `Cn1cc(-c2cc3c(-c4nc5c(-c6cccc(F)c6)cncc5[nH]4)n[nH]c3cn2)cn1` [Compound 888, 3-(7-(3-Fluorophenyl)-3H-imidazo[4,5-c]pyridin-2-yl)-5-(1-methyl-1H-pyrazol-4-yl)-1H-pyrazolo[3,4-c]pyridine], in that order: at most 0.009 µM, 0.07 µM, 71 nM and 100%.
Take `CN(C)CCOc1cncc(-c2cc3c(-c4nc5c(-c6cccc(F)c6)cncc5[nH]4)n[nH]c3cn2)c1` [Compound 895, 2-((5-(3-(7-(3-Fluorophenyl)-3H-imidazo[4,5-c]pyridin-2-yl)-1H-pyrazolo[3,4-c]pyridin-5-yl)pyridin-3-yl)oxy)-N,N-dimethylethan-1-amine]: the concentration for a half-maximal effect (EC50) in assay [1] was at least 9.99 µM; in the assay on ARPE-19 cells, 0.162 µM. In addition, the IC50 (in general, the concentration needed to halve the response being measured) in assay [2] was determined as 0.437 µM.
Take `CCNCc1cncc(-c2cc3c(-c4nc5c(-c6ccc(F)cc6)cncc5[nH]4)n[nH]c3cn2)c1` [Compound 32, N-((5-(3-(7-(4-Fluorophenyl)-3H-imidazo[4,5-c]pyridin-2-yl)-1H-pyrazolo[3,4-c]pyridin-5-yl)pyridin-3-yl)methyl)ethanamine]: the EC50 in assay [1] is at most 0.009 µM. The IC50 in assay [2] was determined as 0.0143 µM. Besides, the EC (100% TGF-beta3 activity) in assay [3] came to 110 nM.
As for `COc1cncc(-c2cc3c(-c4nc5c(-c6cccc(F)c6)cncc5[nH]4)n[nH]c3cn2)c1` [Compound 896, 3-(7-(3-Fluorophenyl)-3H-imidazo[4,5-c]pyridin-2-yl)-5-(5-methoxypyridin-3-yl)-1H-pyrazolo[3,4-c]pyridine], the EC50 in assay [1] was at most 0.009 µM. In assay [2], this compound gave an IC50 of 0.031 µM. Moreover, in assay [3], the EC (100% TGF-beta3 activity) worked out at 140 nM and the Emax amounted to 300%.
The matching figures for `CCNCc1cncc(-c2cc3c(-c4nc5c(-c6cccc(F)c6)cncc5[nH]4)n[nH]c3cn2)c1` [Compound 6, N-((5-(3-(7-(3-Fluorophenyl)-3H-imidazo[4,5-c]pyridin-2-yl)-1H-pyrazolo[3,4-c]pyridin-5-yl)pyridin-3-yl)methyl)ethanamine]: 0.511 µM, 0.0135 µM, 136 nM and 300%.
Turning to `CC(C)(C)C(=O)Nc1cncc(-c2cc3c(-c4nc5c(-c6ccc(F)s6)cncc5[nH]4)n[nH]c3cn2)c1` [Compound 320, N-(5-(3-(7-(5-Fluorothiophen-2-yl)-3H-imidazo[4,5-c]pyridin-2-yl)-1H-pyrazolo[3,4-c]pyridin-5-yl)pyridin-3-yl)pivalamide], the EC50 in assay [1] worked out at 0.103 µM. The compound also came in with an IC50 in assay [2] of 0.0037 µM. Further, the EC (100% TGF-beta3 activity) in assay [3] is 41 nM.
Take `FC1(F)CCN(Cc2cncc(-c3cc4c(-c5nc6c(N7CCCCC7)cncc6[nH]5)n[nH]c4cn3)c2)C1` [Compound 181, 5-(5-((3,3-Difluoropyrrolidin-1-yl)methyl)pyridin-3-yl)-3-(7-(piperidin-1-yl)-3H-imidazo[4,5-c]pyridin-2-yl)-1H-pyrazolo[3,4-c]pyridine]: in assay [1], the EC50 is at most 0.009 µM. In assay [2], the IC50 was determined as 0.0448 µM. In assay [3], the EC (100% TGF-beta3 activity) turned out to be 100 nM and the Emax was determined as 10%.
The matching figures for `CCCC(=O)Nc1cncc(-c2cc3c(-c4nc5c(-c6cc(F)cc(CNS(C)(=O)=O)c6)cncc5[nH]4)n[nH]c3cn2)c1` [Compound 407, N-(5-(3-(7-(3-Fluoro-5-(methylsulfonamidomethyl)phenyl)-3H-imidazo[4,5-c]pyridin-2-yl)-1H-pyrazolo[3,4-c]pyridin-5-yl)pyridin-3-yl)butyramide]: over 10 µM, 0.0239 µM, 79.2 nM and 30%.
For `Cc1ccc(-c2cncc3[nH]c(-c4n[nH]c5cnc(-c6cncc(N)c6)cc45)nc23)s1` [Compound 341, 5-(3-(7-(5-Methylthiophen-2-yl)-3H-imidazo[4,5-c]pyridin-2-yl)-1H-pyrazolo[3,4-c]pyridin-5-yl)pyridin-3-amine], in that order: at most 0.009 µM, 0.0058 µM, 162 nM and 100%.
The matching figures for `CC(C)CC(=O)Nc1cncc(-c2cc3c(-c4nc5c(-c6ccc(F)s6)cncc5[nH]4)n[nH]c3cn2)c1` [Compound 314, N-(5-(3-(7-(5-Fluorothiophen-2-yl)-3H-imidazo[4,5-c]pyridin-2-yl)-1H-pyrazolo[3,4-c]pyridin-5-yl)pyridin-3-yl)-3-methylbutanamide]: 0.173 µM, 0.0074 µM, 180 nM and 900%.
Turning to `CCC(=O)Nc1cncc(-c2cc3c(-c4nc5c(-c6cccs6)cncc5[nH]4)n[nH]c3cn2)c1` [Compound 287, N-(5-(3-(7-(Thiophen-2-yl)-3H-imidazo[4,5-c]pyridin-2-yl)-1H-pyrazolo[3,4-c]pyridin-5-yl)pyridin-3-yl)propionamide], in assay [1], the EC50 worked out at 0.319 µM. For the same compound, the IC50 in assay [2] worked out at 0.0306 µM. Moreover, in assay [3], the EC (100% TGF-beta3 activity) was 84.2 nM and the Emax turned out to be 300%.
As for `NC1CN(c2cncc(-c3cc4c(-c5nc6c(-c7cccc(F)c7)cncc6[nH]5)n[nH]c4cn3)n2)C1` [Compound 890, 1-(6-(3-(7-(3-Fluorophenyl)-3H-imidazo[4,5-c]pyridin-2-yl)-1H-pyrazolo[3,4-c]pyridin-5-yl)pyrazin-2-yl)azetidin-3-amine], the EC50 in assay [1] amounted to 0.088 µM; with ARPE-19 cells, 0.009 µM. In addition, the IC50 in assay [2] turned out to be 0.103 µM.
Turning to `CCCC(=O)Nc1cncc(-c2cc3c(-c4nc5c(-c6ccsc6)cncc5[nH]4)n[nH]c3cn2)c1` [Compound 251, N-(5-(3-(7-(Thiophen-3-yl)-3H-imidazo[4,5-c]pyridin-2-yl)-1H-pyrazolo[3,4-c]pyridin-5-yl)pyridin-3-yl)butyramide], in assay [1], the EC50 is at most 0.009 µM. Also, in assay [2], the IC50 was determined as 0.033 µM. Further, the EC (100% TGF-beta3 activity) in assay [3] came out at 42 nM.

These data come from US10052331B2, “3-(3H-imidazo[4,5-C]pyridin-2-yl)-1H-pyrazolo[3,4-C]pyridine and therapeutic uses thereof” (Samumed, LLC, priority 2014, dated 2018).
